Assay [1] deals with T1, telomerase (Homo sapiens, UniProt O14746).
T1 construct: 3xFLAG (N); made in house; host or cells: HEK293T
Kind of assay: Telomerase inhibition (direct primer extension, 3xTEL primer). In kind it is biochemical.

In assay [2] the target is CST–PP (CST–polymerase α–primase). Kind of assay: CST–PP C-strand synthesis inhibition. In kind it is biochemical, human. The conditions noted are these: for IC50: 25 nM CST–PP, 25 nM template, read-out: IC50synthesis. The method, then: Telomeric C-strand synthesis was performed with CST–PP purified from cultured human cells (HEK293T), a synthetic telomeric DNA template (9xTEL, (TTAGGG)9), ribonucleotides to allow primase activity, and deoxynucleotides including α-^32P-dATP to monitor polymerase α extension. To test whether TMPyP4 would inhibit DNA synthesis by CST–PP, we preincubated 25 nM 9xTEL with increasing concentrations of the drug, then added 25 nM CST–PP and nucleotides and observed C-strand synthesis by gel electrophoresis (Fig. 1A, left). To serve as a size marker and recovery control, a small fraction of the template (T) was radiolabeled. The expected synthesis products were observed, all smaller than the 54-nt template (Supplemental Fig. S2A). The limited extension reflects the limited processivity of CST–PP, and the 6-nt ladder of products is due to multiple initiation sites on the 6-nt repeat template ([Zaug et al. 2022]).
(§1) CST–PP was purified from HEK 293T/17 cells (CRL-11268, ATCC), as previously described ([Zaug et al. 2021], [2022]). Briefly, cells were transfected with 3xFLAG-CTC1, Myc-STN1, and HA-TEN1 at a ratio of 1:1:1, expanded and grown for 48 h, and collected. The complex was purified by successive anti-FLAG and anti-HA immunoprecipitation. Endogenous Polα–primase copurifies with CST ([Zaug et al. 2022]). The purity of the complex was verified by silver staining and concentrations were determined by western blot analysis ([Zaug et al. 2022]).
Reactions (10 μL) contained 25 nM CST–PP and 25 nM single-stranded template DNA in 1× reaction buffer (50 mM Tris-HCl pH 8.0, 2 mM MgCl2, 1 mM spermidine, and 5 mM β-mercaptoethanol), 1× Na^+/K^+ (75 mM KCl and 50 mM NaCl) or 1× Li^+ (125 mM LiCl) salts, rNTPs (0.2 mM each CTP, UTP, ATP), and dNTPs (0.5 mM dCTP, 0.5 mM dTTP, 0.33 μM [α-^32P]dATP [300 Ci mmol^–1], 0.29 μM unlabeled dATP), the indicated concentrations of TMPyP4 or PDS, and 0.2% DMSO.
DNA templates and small molecule dilutions were prepared fresh immediately before each use. A small proportion of the template DNA was 5′ radiolabeled (typically ∼0.1–0.5 nM, 5000 counts per minute per reaction) to serve as a recovery and loading control and internal size marker. CST–PP generated more products with 9xnoGG in Na^+/K^+ than in other conditions, so in that condition, 5× more radioactive template was used (keeping total DNA at 25 nM) so that the control signal was not overwhelmed by the product signal. DNA templates in buffer and designated salt were placed in 95°C heat block for 5 min and cooled at room temperature for 30 min. Dilutions of PDS or TMPyP4 in 1% DMSO (or 1% DMSO only for no inhibitor condition) were added (final 0.2% DMSO), and mixtures were incubated in 30°C water bath for 30 min. CST–PP was added and mixtures were returned to water bath for 30 min. NTPs were added and the reaction proceeded at 30°C for 1 h; 50 µL stop mix (3.6 M ammonium acetate and 0.2 mg mL^−1 glycogen) was then added.
Quenched reactions were cleaned up using the Oligo Clean & Concentrator kit (D4060, Zymo) and eluted in water. An equivalent volume of 2× loading dye (95% formamide, 20 mM EDTA, and 0.05% each bromophenol blue and xylene cyanol) was added. Samples were boiled for 5 min, then loaded on a 10% acrylamide, 7 M urea, and 1× TBE gel. Molecular weight ladders were generated by telomerase as above (no small molecule). Gels were run at 30 W until the bromophenol blue was ∼2 in from the bottom (∼1–1.5 h) and dried on Whatman 3 mm paper at 80°C under a vacuum for 15–30 min. Gels were then exposed to a phosphorimager screen, which was imaged with Amersham Typhoon scanner 5 and analyzed using ImageQuant. The intensity of synthesis was normalized to the intensity of the loading control in the same lane. Relative synthesis was calculated by dividing normalized synthesis at each inhibitor concentration by the normalized synthesis without inhibitor. […]

Assay [3] shares this target. Description: CST–PP binding to template DNA (EMSA) inhibition. More on the design: species or system human. As to conditions: 25 nM CST–PP, 25 nM template, read-out: IC50binding. The method, then:
To test directly if TMPyP4 inhibited CST–PP by preventing association with the templates, we next measured the effect of the drug on the proportion of DNA bound by CST–PP. We used the same conditions as in the synthesis reaction and observed that the DNA was about half bound in the absence of an inhibitor. We prepared DNA templates with an increasing concentration of TMPyP4 as before, then incubated with CST–PP and analyzed by EMSA (electrophoretic mobility shift assay) (Fig. 2A). By normalizing the fraction of DNA bound at each concentration of inhibitor to fraction bound without drug, we determined IC50 values for binding (IC50binding) in the two salts for both 9xTEL and 9xnoGG (Fig. 2B; Table 1).
as §1
Binding reactions were prepared identically to synthesis reactions, except glycerol (10% final) was added in place of the NTP mix. DNA and small molecules were incubated for 30 min at 30°C, then CST was added and incubation continued for another hour. Samples were loaded onto a 1× TBE 0.7% agarose gel and run at 70 V for 75 min at 4°C. The gels were placed on Hybond N^+ atop Whatman 3 mm paper and dried under a vacuum at 80°C for 1 h. They were then exposed to a phosphorimager screen, which was imaged using an Amersham Typhoon scanner 5. Binding was analyzed using ImageQuant; fraction bound was determined by dividing the number of counts in the bound band by the total number of counts in the lane, not including the well. Relative binding was calculated by dividing the fraction bound at each inhibitor concentration by the fraction bound without inhibitor. Results were plotted and analyzed as above.
Background: In EMSA bound probe runs differently from free probe, usually more slowly.

In assay [4] the test system is 9xTEL DNA (TTAGGG)9. Description: Circular dichroism thermal melt of 9xTEL DNA. More on the design: species or system human. The conditions noted are these: 10:1 small molecule:DNA. An excerpt:
As the native gels were insufficient to identify the types of secondary structures formed by the ssDNA templates, we turned to circular dichroism (CD) for more information. We first examined 9xTEL in NaCl; with positive peaks at 290 and 240 nm and a negative peak at 260 nm, the spectrum matched published spectra for antiparallel GQ formation (Fig. 5A). We also collected spectra of 9xTEL in Na^+/K^+ and in K^+ only, which were both consistent with hybrid GQ (Supplemental Fig. S4A,B). Then we added TMPyP4 to 9xTEL at a ratio of 10:1 in each salt condition. […] We performed thermal melts of 9xTEL in Na^+ with and without TMPyP4, monitoring the signal from the positive peak at 290 nm and the negative peak at 260 nm (Fig. 5B). We found the drug increased the melting temperature (Tm) by about 10°C. Thus, 9xTEL DNA in Na^+ forms an antiparallel GQ that is stabilized by TMPyP4, consistent with previous studies ([Martino et al. 2009]).
(§2) CD samples contained 250 nM DNA in 75 mM NaCl and 50 mM KCl (Na^+/K^+), or 125 mM NaCl, KCl, or LiCl, 0.2× reaction buffer (10 mM Tris-HCl pH 8.0, 0.4 mM MgCl2, 0.2 mM spermidine, and 1 mM β-mercaptoethanol), and 0.02% DMSO; those with inhibitors also included 2.5 µM TMPyP4 or PDS. Baseline control samples consisted of 1× corresponding salt and 0.2× reaction buffer.
(§3) Samples containing DNA, salt, and buffer were placed in 95°C heat block for 10 min and cooled at room temperature for 30 min. PDS, TMPyP4, or DMSO was added and samples were incubated at 30°C for 30 min; 1.8 mL was added to a 10 mm path length cuvette and loaded into a Chirascan Plus Circular Dichroism and Fluorescence Spectrometer (Applied Photophysics). Spectra were collected between 360 and 220 nm with a step size of 1 nm. Three repeats were averaged and smoothed with a second-order polynomial with 10 neighbors on each side (Prism).
Continuous ramped thermal melts were performed at the indicated wavelengths with a 2 nm bandwidth. The temperature was increased from 20°C to 90°C at a rate of 1°C/min with a time-per-point of 12 sec. […]
For orientation: Circular dichroism is widely used to follow secondary structure.

For assay [5], the system named is 9xnoGG DNA (TGAGTG)9. Kind of assay: Circular dichroism thermal melt of 9xnoGG DNA. As to conditions: 10:1 small molecule:DNA; for thermal melt transition temperature: CD at 260 and 240 nm. The method, then:
We performed thermal melts of 9xnoGG in Na^+ and Li^+ and monitored the signal at the predominant peaks (positive at 260 nm and negative at 240 nm). The curves were biphasic, with an initial sharp transition at ∼26°C and a minor, broader transition ∼40°C (Fig. 5E). We wondered whether the first transition might represent the dissociation of a dimeric species and collected a full CD spectrum of 9xnoGG at both 12°C and 30°C. While the spectra were very similar, the amplitudes of the positive and negative peaks at 12°C were nearly twice that of the same sample at 30°C (Supplemental Fig. S5B). CD peak attenuation is consistent with a dimer-to-monomer transition ([Kypr et al. 2009]; [Vorlíčková et al. 2012]).
as §2, §3
Continuous ramped thermal melts were performed at the indicated wavelengths with a 2 nm bandwidth. The temperature was increased from 20°C to 90°C at a rate of 1°C/min with a time-per-point of 12 sec. Positive peaks were normalized to 1 at the lowest temperature, and negative peaks were normalized to −1 at the lowest temperature. Spectra were smoothed as above.

These results are taken from PMC11331414, “Small molecule telomerase inhibitors are also potent inhibitors of telomeric C-strand synthesis” (RNA, 2024).

Read-outs that look alike come from different tables or passages of the source.

T1 sequence (O14746 whole entry): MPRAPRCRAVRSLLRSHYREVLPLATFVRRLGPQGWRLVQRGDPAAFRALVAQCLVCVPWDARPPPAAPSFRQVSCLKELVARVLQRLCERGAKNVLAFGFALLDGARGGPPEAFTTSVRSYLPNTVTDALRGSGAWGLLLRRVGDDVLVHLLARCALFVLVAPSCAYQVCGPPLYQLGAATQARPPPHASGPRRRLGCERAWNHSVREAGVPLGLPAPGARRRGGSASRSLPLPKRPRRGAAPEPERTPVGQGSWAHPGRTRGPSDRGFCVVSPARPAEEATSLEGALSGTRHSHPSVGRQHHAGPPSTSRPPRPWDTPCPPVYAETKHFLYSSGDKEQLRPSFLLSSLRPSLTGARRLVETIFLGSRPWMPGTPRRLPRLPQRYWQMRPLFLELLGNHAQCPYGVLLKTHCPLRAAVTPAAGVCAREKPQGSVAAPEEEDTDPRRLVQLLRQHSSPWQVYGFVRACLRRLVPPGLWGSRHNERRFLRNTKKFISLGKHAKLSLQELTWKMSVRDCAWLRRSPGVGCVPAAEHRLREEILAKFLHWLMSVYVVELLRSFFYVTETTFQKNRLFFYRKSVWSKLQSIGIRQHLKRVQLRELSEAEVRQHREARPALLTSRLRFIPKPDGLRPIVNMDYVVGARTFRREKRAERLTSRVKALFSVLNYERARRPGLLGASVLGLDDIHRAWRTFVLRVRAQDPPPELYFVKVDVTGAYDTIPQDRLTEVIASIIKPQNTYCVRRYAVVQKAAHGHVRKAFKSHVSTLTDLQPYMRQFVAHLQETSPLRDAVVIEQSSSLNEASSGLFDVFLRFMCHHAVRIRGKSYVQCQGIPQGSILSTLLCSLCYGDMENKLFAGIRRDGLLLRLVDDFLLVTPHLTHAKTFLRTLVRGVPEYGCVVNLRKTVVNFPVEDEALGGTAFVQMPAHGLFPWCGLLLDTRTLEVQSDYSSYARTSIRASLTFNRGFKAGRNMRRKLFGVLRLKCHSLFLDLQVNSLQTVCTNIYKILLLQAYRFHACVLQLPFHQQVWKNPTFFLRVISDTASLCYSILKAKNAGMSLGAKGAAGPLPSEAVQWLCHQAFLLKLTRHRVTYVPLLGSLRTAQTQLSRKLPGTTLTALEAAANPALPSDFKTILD

As for `NCCOc1cc(C(=O)Nc2cc(OCCN)c3ccccc3n2)nc(C(=O)Nc2cc(OCCN)c3ccccc3n2)c1` [PDS, pyridostatin], the IC50 in assay [1] (2 nM telomerase, 50 nM 3xTEL DNA primer, 75 mM KCl/50 mM NaCl, 30°C, 1 h, read-out: half maximal inhibitory concentration (IC50) of telomerase) came out at 0.52 µM; in assay [2] (template 9xTEL, Li+), 110 nM; in assay [2] (template 9xTEL, Na+/K+) it was 140 nM; in assay [2] (template 9xnoGG, Li+) it was 180 nM; in assay [2] (template 9xnoGG, Na+/K+), 200 nM; in assay [3] (template 9xTEL, Li+), 140 nM. In addition, the IC50 amounted to 110 nM in assay [3] (template 9xTEL, Na+/K+); 160 nM in assay [3] (template 9xnoGG, Li+); 120 nM in assay [3] (template 9xnoGG, Na+/K+). In assay [4] (9xTEL in Li+), the “stabilization in full spectrum thermal melt” value is “considerable stabilization”. In addition, the “stabilization of GQ secondary structure in thermal melt” value in assay [4] (9xTEL in NaCl, complex could not be entirely melted, no Tm calculated) is “substantial stabilization”.
Turning to `C[n+]1ccc(-c2c3nc(c(-c4cc[n+](C)cc4)c4ccc([nH]4)c(-c4cc[n+](C)cc4)c4ccc([nH]4)c(-c4cc[n+](C)cc4)c4nc2C=C4)C=C3)cc1` [TMPyP4], the IC50 in assay [1] was 6.4 µM; in assay [2] (template 9xTEL, Li+) it was 1000 nM; in assay [2] (template 9xTEL, Na+/K+), 250 nM; in assay [2] (template 9xnoGG, Li+), 310 nM; in assay [2] (template 9xnoGG, Na+/K+), 220 nM; in assay [3] (template 9xTEL, Li+), 840 nM. In addition, the IC50 is 260 nM in assay [3] (template 9xTEL, Na+/K+); 200 nM in assay [3] (template 9xnoGG, Li+); 190 nM in assay [3] (template 9xnoGG, Na+/K+). Moreover, in assay [2] (template 9xTEL), the “IC50synthesis in Li+ relative to Na+/K+ (fold higher)” value is reported as “about fourfold”. In assay [4] (9xTEL in Na+, CD at 290 and 260 nm), the “increase of melting temperature (Tm)” value is “about 10 °C”. In addition, the “thermal melt transition temperature” value in assay [5] (9xnoGG in Li+) and in assay [5] (9xnoGG in Na+) was 52 °C throughout. Further, the “increase of melting temperature of dimeric 9xnoGG” value in assay [5] (9xnoGG) is “over 20 °C”.
